# Source: patent US20090176968A1, “Preparation of Triazole Containing Metal Chelating Agents” (PAUL SCHERRER INSTITUT, priority 2006, published 2009)
row,SMILES,melting point
1,CCOC(=O)Cn1cc(C[C@H](N)C(=O)O)nn1 [Compound L3],272 to 274 °C
2,NC(Cc1cn(Cc2ccccc2)nn1)C(=O)O (stereo not drawn) [Compound L1],> 195 °C (dec.)
3,N[C@@H](Cn1cc(Cc2ccccc2)nn1)C(=O)O [Compound L7],> 220 °C (dec.)
